Values belong to the molecule of their own block, whether it stands above or below them.
Legend:
PDGF receptor [1] = test: Real-time degree of binding using BLtz instrument (ForteBio); settings: FIGS. 2A to 2I
Description: (§1) FIG. 2 is a view showing the results of confirming the degree of binding of the peptides using BLtz system according to an exemplary embodiment of the present invention to a VEGF receptor and a PDGF receptor. FIG. 2A is a view showing the results of Peptides 1 to 3, FIG. 2B is a view showing the results of Peptide 8, FIG. 2C is a view showing the results of Peptide 9, FIG. 2D is a view showing the results of Peptide 10, FIG. 2E is a view showing the results of Peptide 11, FIG. 2F is a view showing the results of Peptide 12, FIG. 2G is a view showing the results of Peptide 13, FIG. 2H is a view showing the results of Peptide 14, and FIG. 2I is a view showing the results of Peptide 15.
(§2) In addition, the degree of binding between the peptides and the receptors was confirmed in real time using a BLtz instrument (ForteBio).

VEGF receptor [2] = test: as above; settings: FIGS. 2A to 2I
Description: as §1, §2

PDGF receptor [3] = test: Surface plasmon resonance (SPR) binding test, Biacore T200; settings: PDGF receptor 400 ng/ml, CM5 chip
Procedure: (§3) It was confirmed that the prepared peptides have binding affinity to VEGF receptors and PDGF receptors using surface plasmon resonance (SPR). More specifically, SPR was performed using a Biacore T200 (GE Healthcare) device and a CM5 chip (GE Healthcare, Cat #. BR-1005-30), and the obtained results were analyzed using BIAevaluation software version 3.0 (GE Healthcare). For a binding test, a concentration of 200 ng/mL was used for the VEGF receptor and a concentration of 400 ng/ml was used for the PDGF receptor.

VEGF receptor [4] = test: as above; settings: VEGF receptor 200 ng/mL, CM5 chip
Procedure: as §3

CD31 = CD31 staining of cancer tissue sections (angiogenesis in cancer tissue); type: in vivo, NSG mice; settings: tissue sections of cancer tissue obtained at 14 days, FIG. 4
Procedure: (§4) As a control, an equal amount of phosphate buffered saline (PBS) was mixed with Matrigel and injected. After the mice were euthanized 14 days later, cancer tissue was obtained and the size of cancer was measured. All animal handling and procedures were performed in accordance with research protocols approved by the Animal Care and Use Committee of Seoul National University Hospital. Thereafter, in all experiments, statistical significance between two groups was confirmed by a Student's t-test, and when P<0.05, it was determined to be statistically significant. Then, the obtained cancer tissue was fixed using a 4% paraformaldehyde solution, embedded using paraffin, and then cut to a thickness of […] to prepare a tissue section. The prepared tissue section was then stained using a CD31 antibody (Abcam) that specifically binds to CD31, a blood vessel-specific gene, and DAPI.

[5] = tested on: MDA-MB-231 breast cancer cell line; test: Anticancer effect: MDA-MB-231 cells mixed with peptide and Matrigel injected subcutaneously, size of cancer; type: in vivo, NSG mice; settings: 14 days after subcutaneous injection with 2×10^6 MDA-MB-231 cells and Matrigel, compared to PBS control, FIG. 3
Procedure: as §4

[6] = tested on: mice with oxygen-induced retinopathy; test: Oxygen-induced retinopathy mice, intravitreal injection, isolectin staining, area of neovascular tufts; type: in vivo; settings: 1 μL intravitreal, right eye, 5 days after injection, FIGS. 5 and 6
Procedure: Two days later, for the prepared mice with retinopathy, 1 μL of phosphate buffer solution, Peptide 1, Peptide 4, and KAI1 protein (CD82), which is known to bind to VEGF and PDGF, were intravitreally injected to the right eye of each of the mice, respectively. Mice were euthanized 5 days after injection and enucleated eyes were prepared. The prepared enucleated eye was immunostained using 5 μg/mL Alexa Fluor 594 isolectin GS-IB4 conjugate (Invitrogen), and then observed using a fluorescence microscope. Thereafter, the area of neovascular tufts was quantified as a percentage of the total retina using Image J (NIH).

degree of binding to the PDGF receptor (BLtz) (PDGF receptor [1]): weak binding affinity | degree of binding to the VEGF receptor (BLtz) (VEGF receptor [2]): weak binding affinity | binding to the PDGF receptor (SPR) (PDGF receptor [3]): bound weakly | binding to the VEGF receptor (SPR) (VEGF receptor [4]): bound weakly
Molecule: NRPEVTAPASCEVKGEEDNS [Peptide 2]

degree of binding to the PDGF receptor (BLtz) (PDGF receptor [1]): weak binding affinity | degree of binding to the VEGF receptor (BLtz) (VEGF receptor [2]): weak binding affinity
Molecule: NRPEVTYPCSCEVKGAAANS [Peptide 3]

degree of binding to the PDGF receptor (BLtz) (PDGF receptor [1]): stably bound | degree of binding to the VEGF receptor (BLtz) (VEGF receptor [2]): stably bound | binding to the PDGF receptor (SPR) (PDGF receptor [3]): bound strongly | binding to the VEGF receptor (SPR) (VEGF receptor [4]): bound strongly
Molecule: SFYNWTDNAELMN [Peptide 9]

Molecule: NRPEVTYPCSCEVKGEEDNS [Peptide 1]
CD31 antibody staining (fluorescence intensity) in cancer tissue (CD31): almost no portion stained with a CD31 antibody | size of cancer [5]: size of cancer was inhibited compared to the control | degree of binding to the PDGF receptor (BLtz) (PDGF receptor [1]): highest binding affinity | degree of binding to the VEGF receptor (BLtz) (VEGF receptor [2]): highest binding affinity | binding to the PDGF receptor (SPR) (PDGF receptor [3]): bound strongly | binding to the VEGF receptor (SPR) (VEGF receptor [4]): bound strongly | angiogenesis inhibitory effect in retinopathy (area of neovascular tufts as percentage of total retina) [6]: angiogenesis inhibitory effect similar to that of the comparative group administered the KAI1 protein

Molecule: NRPEVTAPASCEVKGAAANS [Peptide 4]
CD31 antibody staining (fluorescence intensity) in cancer tissue (CD31): remarkably high | size of cancer [5]: size of cancer was remarkably increased | angiogenesis inhibitory effect in retinopathy (area of neovascular tufts as percentage of total retina) [6]: did not show an angiogenesis inhibitory effect

degree of binding to the PDGF receptor (BLtz) (PDGF receptor [1]): stably bound | degree of binding to the VEGF receptor (BLtz) (VEGF receptor [2]): stably bound | binding to the PDGF receptor (SPR) (PDGF receptor [3]): bound strongly | binding to the VEGF receptor (SPR) (VEGF receptor [4]): bound strongly
Molecule: NHPEDWPVYQEGC [Peptide 15]

B1: KAI1 protein: KAI1 protein (CD82), which is known to bind to VEGF and PDGF; comparative group (protein, UniProt P27701 1-267, looked up)
CD82 antigen: MGSACIKVTKYFLFLFNLIFFILGAVILGFGVWILADKSSFISVLQTSSSSLRMGAYVFIGVGAVTMLMGFLGCIGAVNEVRCLLGLYFAFLLLILIAQVTAGALFYFNMGKLKQEMGGIVTELIRDYNSSREDSLQDAWDYVQAQVKCCGWVSFYNWTDNAELMNRPEVTYPCSCEVKGEEDNSLSVRKGFCEAPGNRTQSGNHPEDWPVYQEGCMEKVQAWLQENLGIILGVGVGVAIIELLGMVLSICLCRHVHSEDYSKVPKY
angiogenesis inhibitory effect in retinopathy (area of neovascular tufts as percentage of total retina) [6]: angiogenesis inhibitory effect

From US20250288647A1, “ANGIOGENESIS INHIBITING PEPTIDE AND USE THEREOF” (SEOUL NATIONAL UNIVERSITY HOSPITAL, priority 2021, published 2025)
